Results reported in patent publication US20090226536A1, “METHODS AND MATERIALS RELATING TO ENHANCED PRODUCTION OF DOPAMINE NEURONS” (priority 2004, published 2009).

Legend:
[1] = system: rat VM E14.5 precursor cultures; test: TH immunostaining, number of TH+ cells in VM precursor cultures; format: cell-based; conditions: for dose of maximal effect / optimal dose to increase TH+ cell numbers: dose-response in E14.5 VM precursors; for increase in the number of TH positive cells (maximal effect): rat VM E14.5 precursor cultures, three days in vitro, at 3-5 μM I3M, 15 μM KP
Protocol: (§1) E14.5 VMs obtained from time-mated Sprague-Dawley rats (ethical approval for animal experimentation was granted by Stockholms Norra Djurförsöks Etiska Nämnd) were dissected, mechanically dissociated, and plated at a final density of 1×10^5 cells per cm2 on poly-D-lysine coated plates (Falcon) in serum-free N2 medium, consisting of a 1:1 mixture of F12 and MEM (Invitrogen) with 5 μg/ml insulin, 100 μg/ml transferrin, 100 μM putrescine, 20 nM progesterone, 30 nM selenium, 6 mg/ml glucose and 1 mg/ml BSA (all purchased from Sigma). Cultures were kept three days in vitro, in a 37° C. incubator, at 5% CO2, before fixation. MN9D and SN4741 cells were grown as described in Choi et al., 1991 and Son et al., 1999. MN9D cultures were fixed after four days in vitro. I3M and KP (Alexis Biochemicals, Göteborg, Sweden) were diluted in DMSO and added to the cultures at the time of plating. […] 10 μM BrdU was added to the culture media 6 hours prior to fixation.
(§2) Cells were fixed in ice-cold 4% paraformaldehyde for 20 minutes and washed in PBS. For a detailed protocol of immunocytochemistry, see Castelo-Branco et al., 2003 (7). The following primary and secondary antibodies were used: mouse α-TH (1:1000 dilution—Immunostar), rabbit α-TH (1:250-Pelfreeze), mouse α-β-III-tubulin (1:1000-Promega), rabbit α.Nurr1 (1:1000-Santa Cruz), mouse α-MAP2 (1:200—Sigma), rabbit A-GFAP (1:400-Dako), mouse α.active-caspase III (1:100-Cell Signaling), mouse α-BrdU (1:100-Dako) and rat α.BrdU (1:100-Abcam), biotinylated 1:500, Cyanine-2 or rhodamine-coupled horse-α-mouse IgG 1:200 or goat α-rabbit IgG 1:200, from Vector and Jackson Laboratories). At the end of the staining procedure, the cultures were incubated with Hoechst 33258 reagent for 10 minutes. BrdU immunocytochemistry included an incubation for 30 minutes with 2NHCL. Images were acquired from stained cells in PBS at room temperature with a Zeiss Axioplan 100M microscope (LD Achrostigmat 20×, 0.3 PH1. 0-2 and LD Achroplan 40×, 0.60 Korr PH2. 0-2) and collected with a Hamamatsu camera C4742-95 (with QED imaging software).
(§3) Quantitative immunocytochemical data represent the means±standard errors of counts from ten non-overlapping fields, in three wells per condition from three to five separate experiments. For the RT-PCR experiments, five separate experiments were analysed and for the GSK-3β inhibitors dose response, two sets of experiments were analysed. Statistical analysis was performed in Prism 4 (GraphPad software, San Diego, USA) as described in the figure legends, with […] significance for all tests assumed at the level of p<0.05 (*p<0.05; **0.01<p<0.001; ***p<0.001). Statistical tests were chosen according to the distribution of the sample population.

GSK-3β = target: T1, GSK-3β (Mus musculus, UniProt Q9WV60); test: Immunoblotting of GSK-3β protein levels in SN4741 cells; format: cell-based; conditions: 15 μM KP and 5 μM I3M for 24 hours
T1 construct: treatment of a DA precursor cell line derived from the substantia nigra, SN4741 (21) with KP or I3M led to a downregulation of GSK-3β protein levels; endogenous in cells; host or cells: SN4741 cells
T1 sequence (Q9WV60 whole entry): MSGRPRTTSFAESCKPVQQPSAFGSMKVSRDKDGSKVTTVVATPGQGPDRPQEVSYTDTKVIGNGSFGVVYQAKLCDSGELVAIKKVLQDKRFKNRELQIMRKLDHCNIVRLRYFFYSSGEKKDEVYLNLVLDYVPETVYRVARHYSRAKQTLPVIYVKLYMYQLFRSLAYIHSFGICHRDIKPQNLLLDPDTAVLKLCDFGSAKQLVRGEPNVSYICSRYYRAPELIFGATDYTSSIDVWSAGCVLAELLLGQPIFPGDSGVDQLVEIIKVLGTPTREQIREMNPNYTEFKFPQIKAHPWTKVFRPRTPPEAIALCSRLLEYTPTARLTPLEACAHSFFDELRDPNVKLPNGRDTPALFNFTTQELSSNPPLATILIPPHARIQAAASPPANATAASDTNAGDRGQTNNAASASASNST
Protocol: as §1
(§4) Cell were lysed for 15 min in a modified RIPA buffer containing 20 mM Tris (pH 7.5), 140 mM NaCl, 10% glycerol, 1% IGEPAL, 1 mM β-glycerol-phosphate, 1 mM Na3VO4 and complete protease inhibitors (Roche). Plates were scraped and the cell lysate was centrifuged in a microfuge for 5 min. […] Equal amounts of protein were analysed by polyacrylamide gel electrophoresis (10% polyacrylamide). […]

VM precursors = test: Immunostaining for neuronal and glial differentiation (GFAP, TuJ1, MAP2, TH) of VM precursors; format: cell-based, rat; conditions: three days, 15 μM KP and 5 μM I3M
Protocol: as §1, §2, §3

VM precursor cultures = test: Total cell number, proliferation (BrdU) and active Caspase 3 in VM precursor cultures; format: cell-based, rat; conditions: for active Caspase 3 immunostaining: VM precursor cultures; for active Caspase 3 immunostaining / proliferation (BrdU incorporation): 15 μM KP, 5 μM I3M; for proliferation (BrdU incorporation): VM precursors, 6 h BrdU pulse; for total number of VM cells (Hoechst 33258 staining): after 3 days in culture, 15 μM KP and 5 μM I3M
Protocol: as §1, §2, §3

β-catenin = test: Immunoblotting of β-catenin protein in VM precursors; format: cell-based, rat; conditions: 15 μM KP or 5 μM I3M for 24 hours
Protocol: as §1, §4

TH = test: Immunoblotting of TH protein in VM precursors; format: cell-based, rat; conditions: 15 μM KP or 5 μM I3M for 24 hours
Protocol: as §1, §4

GSK-3β and CDKs = conditions: at 3-5 μM I3M and 15 μM KP; refs (20, 13); cited from earlier work
MN9D cells = test: MN9D cell number, proliferation and morphological differentiation; format: cell-based
Protocol: as §1, §2

c-ret mRNA = test: Real time RT-PCR of c-ret mRNA in VM precursor cultures; format: cell-based, rat; conditions: 15 μM KP, three days in vitro
Source text: Total RNA was isolated from E14.5 VM precursor cultures (2.5×10^6 cells in 6 cm2 dishes) treated with the GSK-3β inhibitors for three days in vitro. For a description of reverse transcription reaction, real-time RT-PCR and c-ret primer sequences, see Castelo-Branco et al., 2003 (7). Quantum RNA classical 18S internal standard was purchased from Ambion (Austin, USA) and PCR primers from DNA Technology A/S, Aarhus, Denmark. The following PCR programme was used for SYBR Green detection on the ABI PRISM 5700 Detection System (PE AppliedBiosystems, Foster City, Calif., USA): 94° C. for 2 min, 35-40 cycles of 94° C. for 30 s, 59° C. for 30s, 72° C. for 15s and 80° C. for 5s. Statistical analysis of the results was performed by a 2-tailed Wilcoxon signed rank test. Significance for all tests was assumed at the level of p<0.05 (*p<0.05; **0.01<p<0.001; ***p<0.001).

VM Nurr1+ precursors = test: TH/Nurr1 double immunostaining, conversion of Nurr1+ precursors into TH+ neurons; format: cell-based, rat; conditions: three days after treatment with 15 μM KP
Protocol: as §1
Cells were fixed in ice-cold 4% paraformaldehyde for 20 minutes and washed in PBS. […]
Quantitative immunocytochemical data represent the means±standard errors of counts from ten non-overlapping fields, in three wells per condition from three to five separate experiments. For the RT-PCR experiments, five separate experiments were analysed and for the GSK-3β inhibitors dose response, two sets of experiments were analysed. […]

[2] = MN9D cells, 15 μM KP for four days

| GSK-3β protein levels (GSK-3β) | Compound | dose of maximal effect / optimal dose to increase TH+ cell numbers [1] | increase in the number of TH positive cells (maximal effect) [1] | immature neurons (TuJ1 positive cells/Hoechst 33258) (VM precursors) | number of mature neurons (MAP2 positive cells/Hoechst 33258) (VM precursors) | proportion of TH+ DA neurons (TH+/TuJ1+ cells) (VM precursors) | total number of astrocytes (GFAP positive cells/Hoechst 33258) (VM precursors) | active Caspase 3 immunostaining (VM precursor cultures) | proliferation (BrdU incorporation) (VM precursor cultures) | total number of VM cells (Hoechst 33258 staining) (VM precursor cultures) | β-catenin protein levels (β-catenin) | TH protein levels (TH) | kinase selectivity at the concentrations used (GSK-3β and CDKs) | morphological differentiation of MN9D cells (MN9D cells; 15 μM KP for four days) | neurite extension of MN9D cells (MN9D cells; KP treatment) | proliferation (BrdU incorporation) (MN9D cells; [2]) | total number of cells (Hoechst 33258) (MN9D cells; [2]) | c-ret mRNA levels (c-ret mRNA) | increase in the number of TH/Nurr1 double positive cells (VM Nurr1+ precursors) |
| --- | --- | --- | --- | --- | --- | --- | --- | --- | --- | --- | --- | --- | --- | --- | --- | --- | --- | --- | --- |
| decreases | O=C1Nc2ccccc2/C1=C1/Nc2ccccc2/C1=N\O [I3M, Indirubin-3-monoxime] | 3 to 5 µM | five | increased | increase | marked increase | increased | reduced | significantly decreased | did not change | increased | increased | inhibits both GSK-3β and CDKs |  |  |  |  |  |  |
| decreases | O=C1Cc2c([nH]c3ccc(Br)cc23)-c2ccccc2N1 [KP, Kenpaullone] | 15 µM | three | increased | increase | marked increase | increased | not modified | not affected | did not change | increased | increased | GSK-3β selective inhibitor | induced morphological differentiation | increase | did not alter | did not alter | upregulated | 2.5 fold |
